Patent publication US12364713B2, “Coagulation mold, a kit and a method for preparing a coagulated blood mass” (Reddress Ltd., priority 2022, dated 2025)
Several values for one entry are separate records, joined by “and”; a condition that tells them apart may be missing. Equal entries are not always repeated.

System: whole blood
Test: Calcium Gluconate (CG) Powder Test: coagulation of whole blood with varying CG amounts
Description: A standard amount of ACD-A anticoagulant and Kaoiln powder per 1 ml of whole blood was used • 2 ml of ACD-A for 15 ml blood=0.133 ml ACD-A/1 ml blood • 28 mg Kaolin powder for 15 ml blood=1.87 mg Kaolin/1 ml blood
Different amounts of CG where tested-CG particle size after sifting is 125 micron • 20 mg for 15 ml of blood=1.33 mgCG/1 ml blood • 50 mg for 15 ml of blood=3.33 mgCG/1 ml blood • 85 mg for 15 ml of blood=5.66 mgCG/1 ml blood • 110 mg for 15 ml of blood=7.33 mgCG/1 ml blood • 140 mg for 15 ml of blood=9.33 mgCG/1 ml blood
Coagulation time and clot structure strength were documented. Blood samples of 5 different volunteers were used.

[1] = 20 mg CG for 15 ml blood, Average of 5 volunteers
[2] = 50 mg CG for 15 ml blood, Average of 5 volunteers
[3] = 85 mg CG for 15 ml blood, Average of 5 volunteers
[4] = 110 mg CG for 15 ml blood, Average of 5 volunteers
[5] = 140 mg CG for 15 ml blood, Average of 5 volunteers

Q: How did the Coagulation time (20 mg CG for 15 ml blood, 2 ml ACD-A, 28 mg Kaolin, individual volunteers #1-#5, good time is under 6 minutes) turn out when Calcium Gluconate [CG] was run?
A: The Coagulation time was 17 and 14 and 12 and 14.5 and 15.

Q: What about the Clot strength [1] of the same substance?
A: The Clot strength was “Low”.

Q: What about the Coagulation time [1] of the same substance?
A: The Coagulation time was 14.5.

Q: What about the Clot strength (20 mg CG for 15 ml blood, individual volunteers, visual) of the same substance?
A: The Clot strength was “Low”.

Q: What about the Coagulation time (50 mg CG for 15 ml blood, 2 ml ACD-A, 28 mg Kaolin, individual volunteers #1-#5, good time is under 6 minutes) of the same substance?
A: Its Coagulation time is 6.7 and 5.4 and 6 and 6.6 and 6.8.

Q: And the Clot strength [2]?
A: Its Clot strength is “Medium”.

Q: And the Coagulation time [2]?
A: Its Coagulation time is 6.3.

Q: And the Clot strength (50 mg CG for 15 ml blood, individual volunteers, visual)?
A: The Clot strength was “Medium”.

Q: What about the Coagulation time (85 mg CG for 15 ml blood, 2 ml ACD-A, 28 mg Kaolin, individual volunteers #1-#5, good time is under 6 minutes) of the same substance?
A: Its Coagulation time is 4.8 (2×) and 4.6 (2×) and 4.7.

Q: What about the Clot strength [3] of the same substance?
A: The Clot strength was “Strong”.

Q: What about the Coagulation time [3] of the same substance?
A: Its Coagulation time is 4.88.

Q: And the Clot strength (85 mg CG for 15 ml blood, individual volunteers, visual)?
A: The Clot strength was “Strong”.

Q: And the Coagulation time (110 mg CG for 15 ml blood, 2 ml ACD-A, 28 mg Kaolin, individual volunteers #1-#5, good time is under 6 minutes)?
A: Its Coagulation time is 4.7 and 5.2 and 4.6 and 4.9 and 5.

Q: And the Clot strength [4]?
A: The Clot strength was “Strong”.

Q: What about the Coagulation time [4] of the same substance?
A: Its Coagulation time is 4.7.

Q: What about the Clot strength (110 mg CG for 15 ml blood, individual volunteers, visual) of the same substance?
A: Its Clot strength is “Strong”.

Q: And the Coagulation time (140 mg CG for 15 ml blood, 2 ml ACD-A, 28 mg Kaolin, individual volunteers #1-#5, good time is under 6 minutes)?
A: The Coagulation time was 4.8 and 4.7 and 5 and 5.2 and 4.9.

Q: And the Clot strength [5]?
A: Its Clot strength is “Strong”.

Q: And the Coagulation time [5]?
A: The Coagulation time was 4.92.

Q: And the Clot strength (140 mg CG for 15 ml blood, individual volunteers, visual)?
A: The Clot strength was “Strong”.
